Assay results reported in ChEMBL document CHEMBL3217571, “Structureactivity relationships of novel iodinated quinoline-2-carboxamides for targeting the translocator protein” (Medchemcomm, 2013).

Experiments:
[1] = Permeability of the compound using immobilized artificial membrane; type: physicochemical
serum albumin = serum albumin (Homo sapiens, UniProt P02768); experiment: Binding affinity to human serum albumin by HPLC analysis; type: ADME; conditions: read-out: PB (converted)
Translocator protein = Translocator protein (Rattus norvegicus, UniProt P16257); experiment: Displacement of [3H]-PK11195 from TSPO in Sprague-Dawley rat brain homogenates after 90 mins by liquid scintillation counting analysis; type: tissue-based
Translocator protein, sequence (P16257 whole entry, looked up): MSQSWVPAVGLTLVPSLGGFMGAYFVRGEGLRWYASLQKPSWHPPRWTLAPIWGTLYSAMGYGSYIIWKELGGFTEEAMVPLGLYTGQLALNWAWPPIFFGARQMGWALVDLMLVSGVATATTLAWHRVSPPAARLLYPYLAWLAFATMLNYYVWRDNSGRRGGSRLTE

serum albumin, sequence (P02768 whole entry): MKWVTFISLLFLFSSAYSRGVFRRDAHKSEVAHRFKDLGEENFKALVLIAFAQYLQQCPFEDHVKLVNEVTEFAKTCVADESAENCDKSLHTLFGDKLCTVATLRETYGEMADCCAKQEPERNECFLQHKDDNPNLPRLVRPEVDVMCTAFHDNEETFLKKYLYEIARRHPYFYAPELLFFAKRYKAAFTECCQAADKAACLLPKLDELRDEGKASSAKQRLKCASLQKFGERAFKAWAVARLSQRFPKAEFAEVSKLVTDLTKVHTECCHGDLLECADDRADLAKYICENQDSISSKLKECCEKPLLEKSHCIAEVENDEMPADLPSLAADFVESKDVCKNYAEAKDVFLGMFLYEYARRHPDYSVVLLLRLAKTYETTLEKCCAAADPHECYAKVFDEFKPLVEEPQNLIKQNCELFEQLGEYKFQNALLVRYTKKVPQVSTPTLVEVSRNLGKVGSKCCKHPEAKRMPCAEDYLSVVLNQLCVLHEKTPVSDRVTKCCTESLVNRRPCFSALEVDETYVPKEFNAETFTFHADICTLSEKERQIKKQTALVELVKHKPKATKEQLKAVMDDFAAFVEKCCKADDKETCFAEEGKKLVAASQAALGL

Q: With `O=C(c1cc(-c2ccccc2)c2cc(I)ccc2n1)N1CCOCC1` as the compound, how does the Pm [1] read?
A: 0.55

Q: And the fraction unbound (serum albumin)?
A: 0.0462

Q: What about the Ki (Translocator protein) of the same compound?
A: 29900 nM

Q: For `O=C(c1cc(-c2ccccc2)c2cc(F)ccc2n1)N1CCOCC1`, which Pm [1] is on record?
A: 0.25

Q: And the fraction unbound (serum albumin)?
A: 0.122

Q: What about the Ki (Translocator protein) of the same compound?
A: 5740 nM

Q: For `CN(C)C(=O)c1nc2ccccc2c(-c2ccccc2)c1CI`, which Pm [1] is on record?
A: 0.55

Q: And the fraction unbound (serum albumin)?
A: 0.0498

Q: And the Ki (Translocator protein)?
A: 1340 nM

Q: Which results are given for `O=C(c1nc2ccccc2c(-c2ccccc2)c1CI)N1CCOCC1`?
A: Pm [1]: 0.54; fraction unbound (serum albumin): 0.047; Ki (Translocator protein): 27.8 nM

Q: Which Pm [1] does the source give for `O=C(c1cc(-c2ccccc2)c2cccc(I)c2n1)N1CCOCC1` here?
A: 0.41

Q: And the fraction unbound (serum albumin)?
A: 0.0181

Q: And the Ki (Translocator protein)?
A: 76100 nM

Q: With `CCN(CC)C(=O)c1cc(-c2ccccc2I)c2ccccc2n1` as the compound, how does the Pm [1] read?
A: 0.67

Q: What about the fraction unbound (serum albumin) of the same compound?
A: 0.0591

Q: What about the Ki (Translocator protein) of the same compound?
A: 5.01 nM

Q: With `O=C(c1cc(-c2ccccc2I)c2ccccc2n1)N1CCOCC1` as the compound, how does the Pm [1] read?
A: 0.26

Q: What about the fraction unbound (serum albumin) of the same compound?
A: 0.0876

Q: And the Ki (Translocator protein)?
A: 929 nM

Q: Which Pm [1] does the source give for `CCC(C)N(C)C(=O)c1cc2ccccc2c(-c2ccccc2Cl)n1` (stereo not drawn) [PK-11195] here?
A: 0.64

Q: What about the fraction unbound (serum albumin) of the same compound?
A: 0.0772
